# Experimental data reported in patent publication US20190040025A1, “INDOLEAMINE 2,3-DIOXYGENASE INHIBITOR, PREPARATION METHOD THEREFOR, AND APPLICATION” (Jiangsu Hansoh Pharmaceutical Group Co., Ltd., priority 2016, published 2019).
# Experiments:
# [1] = tested on: mouse pancreatic cancer cell line PAN02; experiment: Anti-tumor effect in PAN02 tumor-bearing mouse model; format: in vivo, mouse (C57/BL6); details: PAN02 tumor-bearing mice, 50 mg/kg intragastric twice a day
# Text: The invention used the PAN02 tumor-bearing mouse model to test the anti-tumor effect of the example compounds. The PAN02 tumor-bearing mouse model was the mouse pancreatic cancer cell line PAN02 purchased from Guangzhou Ginnio Biological Technology Co., Ltd., and the culture medium used was DMEM containing 10% fetal bovine serum. The mouse strain used for tumor-bearing was C57/BL6 purchased from Shanghai Slac Laboratory Animal Co., Ltd. At the time of implanting, the PAN02 cells in the logarithmic growth phase were collected, and mixed with the BDMatrigel matrix gel that reduced the growth factor to 50 million cells/ml. Each mouse was implanted subcutaneously with 100 μL of 5 million cells. When the tumor grew to about 100 cubic millimeters, animals were randomly divided into groups with 8 animals per group. Drug administration was started (D0).
# Mode of administration: intragastrical administration, twice a day.
# (§1) Formulation prescription: 3% two methyl acetamide and 20% hydroxypropyl-β-cyclodextrin. • Administration period and tumor measurement: The administration period was 13 days. The tumor volume was measured, the mice were weighed, and the data were recorded, 3 times a week. The calculation formula of tumor volume (V) is: V=½a×b2, where a and b represent length and width respectively. The calculation formula of T/C is: T/C (%)=100×ΔT/ΔC. Tumor inhibition rate (%)=1−T/C (%). • Experimental results: the anti-tumor effect of the compound of Example 15 in PAN02 tumor-bearing mouse model is shown in the following table.
# [2] = molecular target: T1, indoleamine 2,3-dioxygenase (IDO) in HeLa cells (Homo sapiens, UniProt P14902); experiment: Cell model test for IDO activity inhibition (interferon γ induced HeLa cells); format: cell-based; details: interferon γ 50 ng/mL, 24 hours, read-out: Cytological Test IC50
# T1 construct: Interferon γ induced the expression of IDO in HeLa cells; host or cells: HeLa cells induced with interferon γ
# Method: Interferon γ induced the expression of IDO in HeLa cells. This model was used to test the inhibitory activity of compounds on indoleamine 2,3-dioxygenase (IDO). The culture medium of HeLa cells (ATCC) was phenol red-free RPMI-1640 containing 100 μM L-tryptophan. The stock solution of the test compound was prepared to 10 mM with dimethyl sulfoxide, and diluted with dimethyl sulfoxide to the highest concentration of the test during the experiment, then diluted in three-fold gradient, and generally diluted to 8 to 10 concentration points. Duplicate wells were set for each concentration point. The final concentration of DMSO was 0.5%, and internal reference compound was included in each experiment.
# The procedure of the experiment was as follows: 20,000 HeLa cells (ATCC) per well were added on a 96-well culture plate and incubated overnight. After 24 hours, interferon γ (final concentration of 50 ng/mL) and different concentrations of the test compound and the internal reference compound were added to the incubated cells. After 24 hours, 140 μL of the supernatant/well was transferred to a new 96-well plate, and 10 μL of 6.1 N trichloroacetic acid was added to each well. The plate was incubated for 30 minutes at 50° C. to hydrolyze N-formyl-kynurenine to kynurenine. The reaction mixture was centrifuged at 2500 rpm for 10 minutes to remove the precipitate, and the supernatant (100 μL) was transferred to another new 96-well plate. 100 μL of 2% (W/V) p-(dimethylamino)benzaldehyde (p-DMBA)/glacial acetic acid solution was added to each well. The absorbance at 490 nm was read on a BioTek Synergy H1 microplate reader […].
# The original data of the absorbance at 490 nm read on a microplate reader were analyzed. The inhibition of IDO enzyme activity was calculated at different concentrations of the test compound. The half-inhibitory concentration IC50 value of the compound was obtained by non-linear fitting analysis of inhibition percentage data by GraphPad Prism software.
# [3] = tested on: mouse rectal cancer cell line Colon26; experiment: Anti-tumor effect in Colon26 tumor-bearing mouse model; format: in vivo, mouse (Balb/c); details: Colon26 tumor-bearing mice
# Text: The present invention further used the Colon26 tumor-bearing mouse model to test the anti-tumor effect of the example compounds. The Colon26 tumor-bearing mouse model was the mouse rectal cancer cell line Colon26 purchased from Guangzhou Ginio Biological Technology Co., Ltd., and the culture medium used was RPMI1640 containing 10% fetal bovine serum. The mouse strain used for tumor-bearing was Balb/c purchased from Sino-British SIPPR/BK Lab Animal Co., Ltd. At the time of implanting, the Colon26 cells in logarithmic growth phase were collected and mixed to 10 million cells/ml. Each mouse was implanted subcutaneously with 100 μl of one million cells. When the tumor grew to about 100 cubic millimeters, animals were randomly divided into groups with 8 animals per group. Drug administration was started (D0).
# Mode of administration: intragastric administration, twice a day.
# as §1, with “3% dimethylacetamide” for “3% two methyl acetamide”, “times per” for “times a”, “is: V=½a×b2” for “is: V=½a×b2,”, “and width,” for “and width”, “results: The antitumor” for “results: the anti-tumor”, “in Colon26” for “in PAN02”
# Under the same experimental conditions, the dosage was adjusted. The anti-tumor effect of Example 15 and its optical isomers 18-(1) and 18-(2) in Colon26 tumor-bearing mouse model is shown in the following table: […]
# [4] = 25 mg/kg intragastric twice a day, D12
# T1 sequence (P14902 whole entry): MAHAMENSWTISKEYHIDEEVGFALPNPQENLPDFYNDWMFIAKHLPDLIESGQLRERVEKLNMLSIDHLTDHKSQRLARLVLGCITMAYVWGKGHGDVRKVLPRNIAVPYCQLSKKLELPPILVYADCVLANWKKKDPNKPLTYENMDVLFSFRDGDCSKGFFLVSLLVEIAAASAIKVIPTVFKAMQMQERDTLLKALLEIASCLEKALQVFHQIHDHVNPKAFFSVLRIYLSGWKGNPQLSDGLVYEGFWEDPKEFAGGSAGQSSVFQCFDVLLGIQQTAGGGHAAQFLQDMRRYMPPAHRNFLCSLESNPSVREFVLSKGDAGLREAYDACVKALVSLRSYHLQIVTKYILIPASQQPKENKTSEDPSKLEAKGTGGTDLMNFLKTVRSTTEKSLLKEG
smiles,measurement,setting,value
"CS(=O)(CCNc1nonc1/C(=N/O)Nc1ccc(F)c(Br)c1)=NS(=O)(=O)C1CC1 (stereo not shown) [Example 15, (Z)—N-(3-bromo-4-fluorophenyl)-4-((2-(N-(cyclopropylsulfonyl)-S-methylsulfonimidoyl)ethyl)amino)-N′-hydroxy-1,2,5-oxadiazole-3-carboximidamide]",Average tumor volume (mm^3 ± SEM) D0,[1]; D0 (start of administration),105.0 ± 3.4 mm^3
same,Average tumor volume (mm^3 ± SEM) D12,[1]; D12,163.3 ± 11.0 mm^3
same,T/C (%) D12,[1]; D12,25.2%
same,Tumor inhibition rate (%) D12,"[1]; D12, 50 mg/kg",74.8%
same,IC50,[2],10 nM
same,Tumor inhibition rate (%) D12,"[3]; 10 mg/kg, D12",71.10%
same,Average tumor volume (mm^3 ± SEM) D0,"[3]; 25 mg/kg intragastric twice a day, D0 (start of administration)",95.5 ± 2.0 mm^3
same,Average tumor volume (mm^3 ± SEM) D12,[3]; [4],212.7 ± 28.9 mm^3
same,T/C (%) D12,[3]; [4],5.4%
same,Tumor inhibition rate (%) D12,"[3]; 25 mg/kg intragastric twice a day, D12, 25 mg/kg",94.6%
